This is an account of results in patent publication US8816065B2, “Pharmaceutical or cosmetic composition containing nicotinic acid adenine dinucleotide phosphate or derivative thereof” (Damy Chemical Co., Ltd., priority 2010, dated 2014).

Test [1] has as its system Epidermal keratinocyte neonatal (NHEK-Np). Kind of test: Increase in intracellular calcium in cultured keratinocytes (fluo-3 AM, confocal microscopy). It is filed as cell-based, human. Here is the method: In the present example, an efficacy in inducing an increase in intracellular calcium was evaluated when cultured keratinocytes were treated with NAADP in order to confirm an effect of recovering a skin barrier in the composition of the present invention.
Epidermal keratinocyte neonatal (NHEK-Np, CC-2507, Lonza Co. Ltd.) was treated with fluo-3 AM (Molecular Probe, USA), an intracellular calcium marker, for 30 minutes in a CO2 incubator and then washed with a KBM (Keratinocyte Basal Media, KBM-2, Lonza Co. Ltd.) medium three times. Measurement of intracellular calcium was performed in the KBM medium and an increase in intracellular calcium due to NAADP was observed. For the measurement of intracellular calcium, a concentration of calcium was calculated through the collection of images at 530 nm by using a confocal microscopy (Nikon, Japan) equipped with a laser source having an excitation wavelength of 488 nm and an emission wavelength of 530 nm Amounts of changes in calcium measured when epidermal keratinocyte neonatal (5×10^5 cells) was treated with 0.1 nM, 1 nM, 10 nM, 100 nM, 1000 nM of NAADP are illustrated in FIG. 1, respectively.
On the technique in general: A change in cytosolic calcium serves as a functional read-out for many receptors and channels.

Test [2] relates to keratin 1 and keratin 10 in outer skin of hairless mice. The test is described as follows: Induction of keratinocyte differentiation in hairless mouse skin after topical application (keratin 1/keratin 10 immunostaining). In kind it is in vivo. Here is the method:
Hairless mice (SPF/VAF Crl:SKH 1-hr) used in the present tests were purchased from OrientBio (Seongnam, Korea). NAADP, an experiment material of the present invention, used was a product of Sigma-Aldrich Corporation.
Test materials were prepared by dissolving NAADP for each concentration in a solution, in which 1% dimethyl sulfoxide (DMSO) was added to a phosphate buffer solution, and tests were performed by using a method of applying the test materials on right and left portions of the back of a 6-week-old mouse with cotton swabs. The test materials were applied 5 times for each concentration and the applications were performed twice a day at 9:00 a.m. and 7:00 p.m. Animals having the test materials applied for one week were sacrificed by cervical dislocation, and the skin was dissected to prepare a size of 1 cm×1 cm and was then fixed in a 10% formalin solution over a night. A paraffin block was prepared from the fixed tissues to prepare 5 micrometer slices and the slices were dyed with an antibody (Santa Cruz #SC53251) simultaneously identifying keratin 1 and keratin 10 at a dilution ratio of 1:100. Anti-mouse IgG (invitrogen) combined with Alexa 488 was used as a secondary antibody.
A solution, in which 1% DMSO was added to a phosphate buffer solution, was used as a control group and solutions prepared by diluting the solution used as the control group with NAADP in various concentrations were used as a test group.

Test [3] deals with involucrin, keratin 1, and keratin 10 in primarily cultured epidermal keratinocyte neonatal. Kind of test: Expression of keratinocyte differentiation markers by western blotting. In kind it is cell-based, human. Here is the method: An effect of NAADP on promoting cell differentiation was tested by measuring the expression of differentiation markers (involucrin, keratin 1, and keratin 10) generated during the differentiation of the keratinocytes by using a western blotting method.
Primarily cultured epidermal keratinocyte neonatal was put into a culture flask and attached to the bottom thereof, and then cultured for 5 days until the cells grew to cover about 70% to 80% of an area of the bottom by adding NAADP diluted for each concentration and retinol acid as a control group into a culture medium. The cells were harvested and cleaned with phosphate buffered saline (PBS). Next, precipitates obtained by adding 1 ml of a 10 mM tris-HCl (pH 7.4) buffer solution containing 2% sodium dodecyl sulfate (SDS) and 20 mM dithiothreitol (DTT) and being subjected to sonication, boiling, and centrifugation were again suspended in 1 ml of PBS. A content of protein in the suspension was measured and used as a criterion during the evaluation of a degree of cell differentiation. The results of tests performed by using a group treating the epidermal keratinocyte neonatal (5×10^5 cells) with retinol acid (1 μM) as a positive control group and adding each NAADP having different concentration (10 pM to 10 μM) to a low calcium concentration are presented in the following FIG. 2.
For orientation: Immunoblotting shows a protein as a band on a membrane.

Where [4] appears, read: in vitro, NAADP having a high concentration.

For the substance “nicotinic acid adenine dinucleotide phosphate [NAADP]”, in test [1] (setting [4]), the “intracellular calcium at high concentration of NAADP” value is “increased”. Also, the “movement of intracellular calcium” value in test [1] (treatment with 1 nM to 100 nM of NAADP, 5×10^5 cells, FIG. 1) was “induced”. The “concentration dependence of keratin 1 and keratin 10 increase in vivo” value in test [2] (hairless mouse) is reported as “increased by depending on the concentration of NAADP”. For the same substance, the “concentration at which an increase in the expression level of the differentiation marker appeared” value in test [2] (twice a day for one week) is reported as at least 100 nM. For the same substance, the “expression levels of keratin 1 and keratin 10 in outer skin versus control group” value in test [2] (twice a day for one week, in PBS with 1% DMSO, FIG. 3) was “increased”. The “expression of differentiation markers (involucrin, keratin 1, keratin 10)” value in test [3] (10 pM to 10 μM of NAADP, low calcium concentration, cultured 5 days, FIG. 2) is recorded as “differentiation markers were expressed”. Also, the “effect on keratin 1 and keratin 10 relative to the other marker” value in test [3] (10 pM to 10 μM of NAADP, FIG. 2) is recorded as “better effects”. Besides, in test [3] (setting [4]), the “expression of the markers at high concentration of NAADP” value was “decreased”.
